Publication PMC7486940, “Pre-symptomatic Caspase-1 inhibitor delays cognitive decline in a mouse model of Alzheimer disease and aging” (Nature Communications, 2020)
Values joined by “and” are separate entries in the source; they are usually repeats but may differ in a detail not shown here. Equal values may be shown once. Read-outs that look alike come from different tables or passages of the source. Marks after values point to notes of the source that are not given here. One block for each compound: values may come before it.

Assays:
Casp1 = tested on: Casp1; design: method as in PMID 30254377; details: in vitro Casp1; cited from earlier work
[1] = design: method as in PMID 30254377; details: 50 mg/kg dose of VX-765, carotid infusion, J20 mice; cited from earlier work
[2] = VX-765 and VRT-043198 pharmacokinetics (LC-MS/MS) in plasma, whole brain and CSF after a single IP dose of VX-765
[3] = cited from earlier work
APP23 mice = tested on: APP23 mice; design: method as in PMID 16095884; details: 2-month pre-symptomatic treatment, 3-week WO; cited from earlier work
[4] = tested on: APP/PS1 mouse model of AD; design: method as in Woodling et al., Brain 2016; details: three month treatment given one month before the appearance of deficits, ref Woodling et al., Brain 2016; cited from earlier work
APP/PS1 = tested on: APP/PS1; design: method as in PMID 29191754; details: 1-month pre-treatment, 3-week WO; cited from earlier work
[5] = CSF, 0.50 h after single IP 50 mg/kg VX-765
[6] = CSF, 1 h after single IP 50 mg/kg VX-765
[7] = CSF, 3 h after single IP 50 mg/kg VX-765, some blood contamination during CSF collection
[8] = CSF, 8 h after single IP 50 mg/kg VX-765, some blood contamination during CSF collection
[9] = plasma, 0.25 h after single IP 50 mg/kg VX-765
[10] = plasma, 0.50 h after single IP 50 mg/kg VX-765
[11] = plasma, 1 h after single IP 50 mg/kg VX-765
[12] = plasma, 3 h after single IP 50 mg/kg VX-765
[13] = plasma, 6 h after single IP 50 mg/kg VX-765
[14] = plasma, 8 h after single IP 50 mg/kg VX-765
[15] = plasma, single IP 50 mg/kg VX-765
[16] = whole brain, 0.25 h after single IP 50 mg/kg VX-765
[17] = whole brain, 0.50 h after single IP 50 mg/kg VX-765
[18] = whole brain, 1 h after single IP 50 mg/kg VX-765, NQ = not quantifiable, LLOQ 0.025 μM VX-765, 0.049 μM VRT-043198
[19] = whole brain, single IP 50 mg/kg VX-765

CSF concentration, Mouse 2 ([2]; CSF, 0.25 h after single IP 50 mg/kg VX-765): 3.11 µM
CSF concentration, Mean ([2]; CSF, 0.25 h after single IP 50 mg/kg VX-765, n = 2): 42.9 µM
CSF concentration, Mouse 1 ([2]; CSF, 0.25 h after single IP 50 mg/kg VX-765, some blood contamination during CSF collection): 82.6* μM
CSF concentration, Mouse 1 [2, 5]: 0.44 µM
CSF concentration, Mouse 2 [2, 5]: 7.00 µM
CSF concentration, Mean ([2]; CSF, 0.50 h after single IP 50 mg/kg VX-765, n = 2): 3.72 µM
CSF concentration, Mouse 1 [2, 6]: 0.43 µM
CSF concentration, Mouse 2 [2, 6]: 0.58 µM
CSF concentration, Mean ([2]; CSF, 1 h after single IP 50 mg/kg VX-765, n = 2): 0.50 µM
CSF concentration, Mean ([2]; CSF, 3 h after single IP 50 mg/kg VX-765, n = 2): 0.28 µM
CSF concentration, Mouse 1 [2, 7]: 0.42* μM
CSF concentration, Mouse 2 [2, 7]: 0.15* μM
CSF concentration, Mean ([2]; CSF, 6 h after single IP 50 mg/kg VX-765): 0.21 µM
CSF concentration, Mouse 2 ([2]; CSF, 6 h after single IP 50 mg/kg VX-765, some blood contamination during CSF collection): 0.21* μM
CSF concentration, Mean ([2]; CSF, 8 h after single IP 50 mg/kg VX-765, n = 2): 0.36 µM
CSF concentration, Mouse 1 [2, 8]: 0.13* μM
CSF concentration, Mouse 2 [2, 8]: 0.60* μM
MRTinf in CSF, Mean ([2]; CSF, single IP 50 mg/kg VX-765): 48.6 min
MRTinf in CSF, Mouse 1 ([2]; CSF, single IP 50 mg/kg VX-765): 48.6 min
Tmax in CSF, Mean ([2]; CSF, single IP 50 mg/kg VX-765): 22.8 min
Tmax in CSF, Mouse 1 ([2]; CSF, single IP 50 mg/kg VX-765): 15 min
Tmax in CSF, Mouse 2 ([2]; CSF, single IP 50 mg/kg VX-765): 30 min
CSF concentration relative to respective in vitro Casp1 IC50 ([2]; CSF, within 0.25 h post-injection, single IP 50 mg/kg VX-765): 4000 fold
brain concentration relative to respective in vitro Casp1 IC50 ([2]; brain, within 0.25 h post-injection, single IP 50 mg/kg VX-765): 170 fold
plasma concentration, Mouse 1 [2, 9]: 201800 nM
plasma concentration, Mouse 2 [2, 9]: 180400 nM
plasma concentration, Mean ([2]; plasma, 0.25 h after single IP 50 mg/kg VX-765, n = 2): 191100 nM
plasma concentration, Mouse 1 [2, 10]: 338100 nM
plasma concentration, Mouse 2 [2, 10]: 104100 nM
plasma concentration, Mean ([2]; plasma, 0.50 h after single IP 50 mg/kg VX-765, n = 2): 221100 nM
plasma concentration, Mouse 1 [2, 11]: 24400 nM
plasma concentration, Mouse 2 [2, 11]: 51000 nM
plasma concentration, Mean ([2]; plasma, 1 h after single IP 50 mg/kg VX-765, n = 2): 37700 nM
plasma concentration, Mouse 1 [2, 12]: 1160 nM
plasma concentration, Mouse 2 [2, 12]: 780 nM
plasma concentration, Mean ([2]; plasma, 3 h after single IP 50 mg/kg VX-765, n = 2): 970 nM
plasma concentration, Mouse 1 [2, 13]: 460 nM
plasma concentration, Mouse 2 [2, 13]: 300 nM
plasma concentration, Mean ([2]; plasma, 6 h after single IP 50 mg/kg VX-765, n = 2): 380 nM
plasma concentration, Mouse 1 [2, 14]: 350 nM
plasma concentration, Mouse 2 [2, 14]: 240 nM
plasma concentration, Mean ([2]; plasma, 8 h after single IP 50 mg/kg VX-765, n = 2): 300 nM
MRTinf in plasma, Mouse 1 [2, 15]: 40.2 min
MRTinf in plasma, Mouse 2 [2, 15]: 46.8 min
Tmax in plasma, Mouse 1 [2, 15]: 30 min
Tmax in plasma, Mouse 2 [2, 15]: 15 min
plasma concentration relative to respective in vitro Casp1 IC50 ([2]; plasma, within 0.25 h post-injection, single IP 50 mg/kg VX-765): 20,000 fold
Cmax ([2]; read-out: Cmax in CSF, Mean, CSF, single IP 50 mg/kg VX-765): 44800 nM
Cmax ([2]; read-out: Cmax in CSF, Mouse 1, CSF, single IP 50 mg/kg VX-765): 82600 nM
Cmax ([2]; read-out: Cmax in CSF, Mouse 2, CSF, single IP 50 mg/kg VX-765): 7000 nM
Cmax ([2]; read-out: Cmax in brain, Mean, whole brain, single IP 50 mg/kg VX-765): 1700 nM
Cmax ([2]; read-out: Cmax in brain, Mouse 1, whole brain, single IP 50 mg/kg VX-765): 2540 nM
Cmax ([2]; read-out: Cmax in brain, Mouse 2, whole brain, single IP 50 mg/kg VX-765): 850 nM
Cmax ([2]; read-out: Cmax in plasma, Mean, plasma, single IP 50 mg/kg VX-765): 259000 nM
Cmax ([2]; read-out: Cmax in plasma, Mouse 1, plasma, single IP 50 mg/kg VX-765): 338000 nM
Cmax ([2]; read-out: Cmax in plasma, Mouse 2, plasma, single IP 50 mg/kg VX-765): 180000 nM
brain concentration, Mouse 1 [2, 16]: 2540 nM
brain concentration, Mouse 2 [2, 16]: 850 nM
brain concentration, Mean ([2]; whole brain, 0.25 h after single IP 50 mg/kg VX-765, n = 2): 1700 nM
brain concentration, Mouse 1 [2, 17]: 590 nM
brain concentration, Mouse 2 [2, 17]: 650 nM
brain concentration, Mean ([2]; whole brain, 0.50 h after single IP 50 mg/kg VX-765, n = 2): 620 nM
brain concentration, Mean ([2]; whole brain, 1 h after single IP 50 mg/kg VX-765): 240 nM
brain concentration, Mouse 1 [2, 18]: 210 nM
brain concentration, Mouse 2 [2, 18]: 270 nM
brain concentration, Mean ([2]; whole brain, 3 h after single IP 50 mg/kg VX-765): 80 nM
brain concentration, Mouse 1 ([2]; whole brain, 3 h after single IP 50 mg/kg VX-765, NQ = not quantifiable, LLOQ 0.025 μM VX-765, 0.049 μM VRT-043198): 80 nM
Half-life (t1/2) in brain, Mouse 1 [2, 19]: 59.4 min
MRTinf in brain, Mean [2, 19]: 52.2 min
MRTinf in brain, Mouse 1 [2, 19]: 58.8 min
MRTinf in brain, Mouse 2 [2, 19]: 45.6 min
Tmax in brain, Mean [2, 19]: 15 min
Tmax in brain, Mouse 1 [2, 19]: 15 min
Tmax in brain, Mouse 2 [2, 19]: 15 min
Half-life (t1/2) in brain, Mean ([2]; whole brain, single IP 50 mg/kg VX-765, 50 mg/kg): 60 min and 59.4 min
SMILES: CC(C)(C)[C@H](NC(=O)c1ccc(N)c(Cl)c1)C(=O)N1CCC[C@H]1C(=O)N[C@H](C=O)CC(=O)O [VRT-043198]
IC50 (Casp1): 9.91 nM
concentration in the J20 brain [1]: 2000 to 5000 nM
in vitro half-life (t1/2) [3]: ~180 min

SMILES: COc1ccc2c3c1O[C@H]1C[C@@H](O)C=C[C@@]31CCN(C)C2 [galantamine]
Morris water maze acquisition and spatial memory (APP23 mice): improved acquisition and spatial memory in the Morris water maze

SMILES: CC(C)Cc1ccc(C(C)C(=O)O)cc1 (stereo not shown) [ibuprofen]
cognitive impairment on NOR [4]: prevention of cognitive impairment

SMILES: CC12CC3CC(C)(C1)CC(N)(C3)C2 [memantine]
Morris water maze acquisition and spatial memory (APP23 mice): improved acquisition and spatial memory in the Morris water maze

SMILES: CN1CCN(CCOc2cc(OC3CCOCC3)c3c(Nc4c(Cl)ccc5c4OCO5)ncnc3c2)CC1 [saracatinib]
NOR performance (APP/PS1): continued improved performance in NOR
